A short description of series [1]: Hygroscopicity / water sorption of the crystalline form. Format: physicochemical. Conditions: experimentally determined. On the procedure:
The automated analysis of water sorption was performed using a VTI Symmetrical Gravimetric Analyzer Model 100 (SGA-100) operated in Step-Isotherm mode. The sample was exposed to a cycle of relative humidity (RH) conditions at 25° C. The relative humidity was cycled from 5% to 95% and back to 5% in increments of 5%, and the weight of the sample at each stage was recorded after equilibration (less than 0.01% weight change within 5 minutes). The percent weight change of the sample as a function of the relative humidity was plotted to yield the adsorption/desorption isotherm.

Series [2] deals with Peripheral blood mononuclear cells (PBMC). Briefly: Cytokine induction in human cells (in vitro human blood cell system). The series is classed as cell-based. The settings on record: generally tested at 30-0.014 μM, incubated 18 to 24 hours, ELISA. From the text:
An in vitro human blood cell system is used to assess cytokine induction. Activity is based on the measurement of interferon (α) and tumor necrosis factor (α) (IFN and TNF, respectively) secreted into culture media as described by Testerman et al. in “Cytokine Induction by the Immunomodulators Imiquimod and S-27609,” Journal of Leukocyte Biology, 58, 365-372 (September, 1995).
Whole blood from healthy human donors is collected by venipuncture into EDTA vacutainer tubes. Peripheral blood mononuclear cells (PBMC) are separated from whole blood by density gradient centrifugation using HISTOPAQUE-1077. Blood is diluted 1:1 with Dulbecco's Phosphate Buffered Saline (DPBS) or Hank's Balanced Salts Solution (HBSS). […]
Following incubation the plates are centrifuged for 10 minutes at 1000 rpm (approximately 200×g) at 4° C. […] The samples are analyzed for interferon (α) by ELISA and for tumor necrosis factor (α) by ELISA or IGEN Assay.
Interferon (α) concentration is determined by ELISA using a Human Multi-Species kit from PBL Biomedical Laboratories, New Brunswick, N.J. Results are expressed in pg/mL.
Tumor necrosis factor (α) (TNF) concentration is determined using ELISA kits available from Biosource International, Camarillo, Calif. Alternately, the TNF concentration can be determined by ORIGEN M-Series Immunoassay and read on an IGEN M-8 analyzer from IGEN International, Gaithersburg, Md. […]
Background: ELISA stands for enzyme-linked immunosorbent assay.

The test system of the next series is cytokine biosynthesis. Conditions: U.S. Pat. No. 6,194,425; cited from earlier work.
Series [3] in a line: Relative stability of the crystalline form. Format: physicochemical.

Several values for one entry are separate records, joined by “and”; a condition that tells them apart may be missing. Equal entries are not always repeated. Entries after “also recorded” stand apart in the source; their conditions may differ.

With `CC(C)Cn1cnc2c(N)nc3cccnc3c21.CCS(=O)(=O)O` [Form B, 1-(2-methylpropyl)-1H-imidazo[4,5-c][1,5]naphthyridin-4-amine ethanesulfonate], the hygroscopicity result in series [1] is “hygroscopic”. Regarding `CC(C)Cn1cnc2c(N)nc3cccnc3c21.CCS(=O)(=O)O` [1-(2-methylpropyl)-1H-imidazo[4,5-c][1,5]naphthyridin-4-amine ethanesulfonate], in series [2], the “induction of production of interferon α and/or tumor necrosis factor α” value is “induce the production of certain cytokines; also recorded: inducing the production of interferon α and/or tumor necrosis factor α”. With `CC(C)Cn1cnc2c(N)nc3cccnc3c21` [1-(2-methylpropyl)-1H-imidazo[4,5-c][1,5]naphthyridin-4-amine], in the series on cytokine biosynthesis, the “ability to induce cytokine biosynthesis” value is reported as “induce cytokine biosynthesis”. As to `CC(C)Cn1cnc2c(N)nc3cccnc3c21.CCS(=O)(=O)O.O` (hydrate or solvate), the melting point (as a rule, the temperature, or range, at which the solid turns liquid) was 220 to 221 °C and 221.5 to 223.4 °C. Regarding `CC(C)Cn1cnc2c(N)nc3cccnc3c21.CCS(=O)(=O)O.O` [Form C, 1-(2-methylpropyl)-1H-imidazo[4,5-c][1,5]naphthyridin-4-amine ethanesulfonate monohydrate], the “stability of crystalline form” value in series [3] is given as “relatively stable”.

(Values after patent publication US20090124652A1, “Polymorphs of 1-(2-Methylpropyl)-1H-Imidazo[4,5-C][1,5]Naphthyridin-4-Amine Ethane-Sulfonate” (Takeda Pharmaceutical Company Limited, priority 2004, published 2009).)
